Earlier results, collected in patent US20050152989A1, “Method for treating irritable bowel syndrome” (Braintree Laboratories, Inc., priority 2003, published 2005).

How the values were obtained:
[1] = system: constipation-predominant IBS; details: Case Study 2, patient history before the formulation

For `[H]/N=C(/NCCCCC)N/N=C/c1c[nH]c2ccc(OC)cc12` [tegaserod], the “patients with significant improvement in IBS symptoms compared with placebo” value (IBS; constipation-predominant IBS) is listed as “about one of eight”.

For `COc1cc(N)c(Cl)cc1C(=O)NC1CCN(CCCOc2ccc(F)cc2)CC1OC` (stereo not drawn) [cisapride], the “outcome of earlier treatment regimens tried by the patient” value [1] is given as “without success”.

For `Cc1[nH]cnc1CN1CCc2c(c3ccccc3n2C)C1=O` [alosetron], the toxicity limiting use (IBS; diarrhea-predominant IBS) is listed as “severely limited by its toxicity”.
